Measured values taken from ChEMBL document CHEMBL1201862, “PubChem BioAssay data set” (2004).
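Briefly, cells in 96-well plates were exposed to five compound concentrations for 48 h, and endpoints were estimated by linear interpolation. Here, GI50 denotes the concentration required for 50% inhibition of growth.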 Calls of active or inactive are those of the source. Cut-off read from the data, not from the text of the source: active = GI50 up to about 1.1 µM and inactive = higher.

Legend:
Assay in all cases: NCI anticancer screen, dose series, 48 h
OVCAR-3 = system: OVCAR-3
HOP-92 = system: HOP-92
A498 = system: A498
HCC 2998 = system: HCC 2998
NCI-H460 = system: NCI-H460
MOLT-4 = system: MOLT-4
KM-20L2 = system: KM-20L2
UACC-257 = system: UACC-257
K562 = system: K562
OVCAR-5 = system: OVCAR-5
SF-295 = system: SF-295
DMS-114 = system: DMS-114
OVCAR-8 = system: OVCAR-8
RPMI-8226 = system: RPMI-8226
SNB-19 = system: SNB-19
SNB-75 = system: SNB-75
RXF 393 = system: RXF 393
M19-MEL = system: M19-MEL
KM12 = system: KM12
CAKI-1 = system: CAKI-1
RXF 631 = system: RXF 631
SK-MEL-28 = system: SK-MEL-28
Malme-3M = system: Malme-3M
HCT-15 = system: HCT-15
HL-60 = system: HL-60
786-0 = system: 786-0
NCI-H226 = system: NCI-H226
LOX IMVI = system: LOX IMVI
NCI-H522 = system: NCI-H522
SF-539 = system: SF-539
M14 = system: M14
UACC-62 = system: UACC-62
SK-OV-3 = system: SK-OV-3
NCI-H23 = system: NCI-H23
HOP-62 = system: HOP-62
SK-MEL-2 = system: SK-MEL-2
SN12C = system: SN12C
CCRF-CEM = system: CCRF-CEM
IGROV-1 = system: IGROV-1
SF-268 = system: SF-268
LXFL 529 = system: LXFL 529
A549 = system: A549
HCT-116 = system: HCT-116
OVCAR-4 = system: OVCAR-4
EKVX = system: EKVX
TK-10 = system: TK-10
HT-29 = system: HT-29
COLO 205 = system: COLO 205
SW-620 = system: SW-620
HOP-18 = system: HOP-18
SNB-78 = system: SNB-78
U-251 = system: U-251
DMS-273 = system: DMS-273
SK-MEL-5 = system: SK-MEL-5
SR = system: SR
UO-31 = system: UO-31
ACHN = system: ACHN
XF498 = system: XF498

Q: What does the source list for `Cc1c(C(=O)CC(=O)C(=O)NC2C3CC4CC(C3)CC2C4)[n+]([O-])c2ccccc2[n+]1[O-]` (stereo not drawn)?
A: GI50 (OVCAR-3): 24 µM (inactive); GI50 (HOP-92): > 100 µM (inactive); GI50 (A498): > 100 µM (inactive); GI50 (HCC 2998): > 100 µM (inactive); GI50 (NCI-H460): > 100 µM (inactive); GI50 (MOLT-4): > 100 µM (inactive); GI50 (KM-20L2): > 100 µM (inactive); GI50 (UACC-257): > 100 µM (inactive); GI50 (K562): > 100 µM (inactive); GI50 (OVCAR-5): > 100 µM (inactive); GI50 (SF-295): > 100 µM (inactive); GI50 (DMS-114): > 100 µM (inactive); GI50 (OVCAR-8): > 100 µM (inactive); GI50 (RPMI-8226): > 100 µM (inactive); GI50 (SNB-19): > 100 µM (inactive); GI50 (SNB-75): > 100 µM (inactive); GI50 (RXF 393): > 100 µM (inactive); GI50 (M19-MEL): 90.2 µM (inactive); GI50 (KM12): > 100 µM (inactive); GI50 (CAKI-1): > 100 µM (inactive); GI50 (RXF 631): > 100 µM (inactive); GI50 (SK-MEL-28): > 100 µM (inactive); GI50 (Malme-3M): > 100 µM (inactive); GI50 (HCT-15): > 100 µM; GI50 (HL-60): > 100 µM (inactive); GI50 (786-0): > 100 µM (inactive); GI50 (NCI-H226): > 100 µM (inactive); GI50 (LOX IMVI): > 100 µM (inactive); GI50 (NCI-H522): > 100 µM (inactive); GI50 (SF-539): > 100 µM (inactive); GI50 (M14): > 100 µM (inactive); GI50 (UACC-62): > 100 µM (inactive); GI50 (SK-OV-3): > 100 µM (inactive); GI50 (NCI-H23): > 100 µM (inactive); GI50 (HOP-62): > 100 µM (inactive); GI50 (SK-MEL-2): > 100 µM (inactive); GI50 (SN12C): > 100 µM (inactive); GI50 (CCRF-CEM): 90.6 µM (inactive); GI50 (IGROV-1): > 100 µM (inactive); GI50 (SF-268): > 100 µM (inactive); GI50 (LXFL 529): > 100 µM (inactive); GI50 (A549): > 100 µM (inactive); GI50 (HCT-116): > 100 µM (inactive); GI50 (OVCAR-4): > 100 µM (inactive); GI50 (EKVX): > 100 µM (inactive); GI50 (TK-10): > 100 µM (inactive); GI50 (HT-29): > 100 µM (inactive); GI50 (COLO 205): > 100 µM (inactive); GI50 (SW-620): > 100 µM (inactive); GI50 (HOP-18): 24.4 µM (inactive); GI50 (SNB-78): > 100 µM (inactive); GI50 (U-251): > 100 µM (inactive); GI50 (DMS-273): > 100 µM (inactive); GI50 (SK-MEL-5): > 100 µM (inactive); GI50 (SR): > 100 µM (inactive); GI50 (UO-31): > 100 µM (inactive); GI50 (ACHN): > 100 µM (inactive); GI50 (XF498): 93.5 µM (inactive)
